Assay results published in patent US20200085839A1, “COMBINATION OF IMMUNOTHERAPEUTICS AND BISFLUOROALKYL-1,4-BENZODIAZEPINONE COMPOUNDS FOR TREATING LYMPHOMAS” (Ayala Pharmaceuticals Inc., priority 2018, published 2020).
“Also recorded” adds a separate entry of the source.

Tests used:
[1] = system: U266 cells (MM cell line); assay: Cell-bound BCMA by flow cytometry; format: cell-based, human; conditions: 24 h; for cell-bound BCMA levels: FIG. 1; for effectiveness at increasing cell-bound BCMA compared with other GSIs: all doses above 0.3 nM
Experimental: FIG. 1. Levels of cell-bound BCMA en multiple myelma (MM) cells Incubated with γ-secretase inhibitors (GSIs). U266 cells (MM cell line) were incubated with 0.3 nM, 0.5 nM, 1 nM or 3 nM of GSI (Compound 1, Compound 22, LY3039478 or PF3084014) for 24 hours, and BCMA levels were measured by flow cytometry.
(§1) For detecting levels of soluble and cell-bound BCMA, U266 cells (MM cell line) were seeded at 1×10^5 cells/well in a total volume of 250 μl into a 96-well plate. The cells were cultured in RPMI medium supplemented with 10% FCS. GSIs (Compound 1, Compound 22, LY3039478 (Lilly), and PF3084014 (Pfizer)) were added to U266 cell cultures at a concentration of 0.3 nM, 0.5 nM, 1 nM and 3 nM for soluble BCMA and at a concentration of […]. Following 24 hours of incubation at 37° C., the cells were collected, and BCMA levels were evaluated in both the cells (cell-bound BCMA) and the cell media (soluble BCMA). Cells were stained with an anti-BCMA antibody (PE anti-human CD269 BCMA, Biolegend). Soluble BCMA levels were analyzed by ELISA (Human BCMA/TNFRSF17 DuoSet kit: R&D Systems).

[2] = system: U266 cells (MM cell line); assay: Soluble BCMA in cell media by ELISA; format: cell-based, human; conditions: for BCMA shedding: MM cells (U266), cell-bound and soluble BCMA
Experimental: FIG. 3. Levels of soluble BCMA In cell media after Incubation of multiple myeloma (MM) cells with γ-secretase inhibitors (GSIs). U266 cells (MM cell line) were incubated with 0.3 nM, 1 nM, 3 nM and 10 nM of GSI (Compound 1, Compound 22, LY3039478 or PF3084014) for 24 hours, and BCMA levels were measured by ELISA.
as §1

[3] = system: SP49, Toledo, RC, SUDHL-4 and SUDHL-6 lymphoma cell lines; assay: Cell surface BCMA by FACS, five lymphoma cell lines; format: cell-based, human; conditions: SUDHL-4, SUDHL-6, 10 nM or more, 24 h
Experimental: (§2) Cells were seeded at 1×10^4 cells/well in a total volume of 250 μl into a 96-well plate. The cells were cultured in RPMI supplemented with 10% FCS.
(§3) The tested compounds (Compound 1 and Compound 22) were added to the cell cultures at concentrations of: 0, 10, 1, 0.5, 0.1, 0.01, 0.001 μM ([…], 10 nM, 100 nM, 500 nM, 1000 nM, and 10000 nM). Following 24 hours of incubation at 37° C., the cells were collected and stained with anti-BCMA antibody and immediately analyzed by FACS.
The effect of γ-secretase inhibitors on cell surface BCMA levels in lymphoma cell lines was observed using flow cytometry (FACS analysis) (FIG. 4). Cells from five different lymphoma cell lines were treated for 24 hours with different concentrations of Compound 1 (FIG. 4A) or Compound 22 (FIG. 4B). Lymphoma cell lines treated were: SP49 (MCL with Notch4 GOF); Toledo (DLBCL); RC (Double Hit DLBCL—MYC, BCL2); SUDHL-4 (DLBCL); and SUDHL-6 (DLBCL). GSI concentrations were 0, 1 nM, 10 nM, 100 nM, 500 nM, 1000 nM, and 10000 nM.

[4] = system: B-ALL cell lines RSV411, REH, 018Z; assay: Cell surface BCMA by FACS, B-ALL cell lines; format: cell-based, human; conditions: up to 10 μM, 24 h
Experimental: as §2, §3
The effect of γ-secretase inhibitors on cell surface BCMA levels in Acute B-Cell Lymphoblastic Leukemia (B-ALL) cell lines was also observed using flow cytometry (FIG. 5). Cells from three different B-ALL cell lines were treated for 24 hours with different concentrations (0-10 μM) of GSIs (Compound 1 and Compound 22).

[5] = system: RPMI-8226 human multiple myeloma cell line; assay: Combination index (Chou and Talalay) of Compound (1) with BCMA-CAR-T; format: cell-based; conditions: Compound (1) 10-80 nM with BCMA-CAR-T 10^9 cells
Experimental: (§4) Drug interaction analysis and the confirmation of synergism is determined by the method of Chou and Talalay. Linear regression analysis of dose-response data is performed using Calcusyn 1.2 software (Biosoft, Cambridge, United Kingdom) to calculate a combination index (CI) for each individual drug combination. To ensure valid statistical analysis, only experimental data for which the linear correlation coefficient of the median-effect plot was more than 0.9 are included. CI values are defined as: […]
(§5) The combination of Compound (1) with BCMA-CAR-T in models of human multiple myeloma in vitro lead to synergistic cell killing. Specifically, Compound (1) when used at concentrations between 10-80 nM (concentrations that are relevant in patients) in combination with BCMA-CAR-T at concentrations of 10^9 cells produce synergistic cell killing in the U266 and RPMI-8226 human multiple myeloma cell lines.

[6] = system: U266 human multiple myeloma cell line; assay: as above; format: cell-based; conditions: Compound (1) 10-80 nM with BCMA-CAR-T 10^9 cells
Experimental: as §4, §5

018Z cells (B-ALL) = assay: Cell surface BCMA by FACS; format: cell-based, human
Experimental: as §2, §3
(§6) […] cell lines, comprising 9 subtypes of lymphomas (see Table 1), were seeded at 1×10^5 cells/well in a total volume of 250 μl into a 96-well plate. The cells were cultured in RPMI medium supplemented with 10% FCS. Compound (22) was added to the cell cultures at a concentration of 10 μM, 1 μM, 100 nM, 10 nM, 1 nM, 100 pM, 10 pM, 1 pM, and 100 fM, and cell lines (8 from Hadassah Medical Center, 31 from Eurofins) were incubated at 37° C. for 24 hours with Compound (22). Following incubation, the cells were collected and BCMA levels were evaluated on the cell surface for cell-bound BCMA. Cells were stained with an anti-BCMA antibody (PE anti-human 19F2 BCMA, Biolegend), and cell surface BCMA levels were determined by FACS analysis (Mean Fluorescence Intensity. Soluble BCMA levels were analyzed by ELISA (Human BCMA/TNFRSF17 DuoSet kit: R&D Systems).

RS411 cells (B-ALL) = assay: Cell surface BCMA by FACS; format: cell-based, human
Experimental: as §2, §3, §6

[7] = system: […] cell lines, comprising 9 subtypes of lymphomas; assay: Cell surface BCMA by FACS, lymphoma cell line panel; format: cell-based, human
Experimental: as §6

SMILES | cell-bound BCMA levels [1] | effectiveness at increasing cell-bound BCMA compared with other GSIs [1] | BCMA shedding [2] | cell surface BCMA levels [3] | BCMA expression [4] | cell killing, combination index (CI) class [5] | cell killing, combination index (CI) class [6] | mBCMA (MFI) Fold Increase (018Z cells (B-ALL)) [fold] | BCMA (Mean Fluorescence Intensity) 1 nM Compound (22) (018Z cells (B-ALL); 1 nM, 24 h) | BCMA (Mean Fluorescence Intensity) 100 nM Compound (22) (018Z cells (B-ALL); 100 nM, 24 h) | mBCMA (MFI) Fold Increase (RS411 cells (B-ALL)) [fold] | BCMA (Mean Fluorescence Intensity) 1 nM Compound (22) (RS411 cells (B-ALL); 1 nM, 24 h) | BCMA (Mean Fluorescence Intensity) 100 nM Compound (22) (RS411 cells (B-ALL); 100 nM, 24 h) | potency in reducing soluble BCMA in cell media compared with other GSIs ([2]; U266, 24 h) | cell-bound BCMA levels ([7]; B-ALL, histiocytic lymphoma, anaplastic large cell lymphoma, cutaneous T-cell lymphoma cell lines) | cell-bound BCMA levels ([7]; cell lines derived from Mantle Cell Lymphoma, DLBCL, Burkitt's Lymphoma, B-cell Lymphoma, 24 h) | cell-bound BCMA levels ([7]; cell lines from Hodgkin's Lymphoma patients) | increase of BCMA expression ([7]; certain lymphomas) | mBCMA ([7]; certain lymphomas)
CN1C(=O)[C@@H](NC(=O)[C@H](CCC(F)(F)F)[C@H](CCC(F)(F)F)C(N)=O)N=C(c2ccccc2)c2ccccc21 [Compound 1, (2R,3S)—N-((3S)-1-methyl-2-oxo-5-phenyl-2,3-dihydro-1H-1,4-benzodiazepin-3-yl)-2,3-bis(3,3,3-trifluoropropyl)succinamide] | increased cell-bound BCMA levels | as effective as LY3039478 and more effective than PF3084014 | inhibit BCMA shedding | elevated BCMA levels | did not affect BCMA expression | synergistic (0.3 < CI ≤ 0.9) | synergistic (0.3 < CI ≤ 0.9) | – | – | – | – | – | – | – | – | – | – | – | –
Cc1cccc2c1NC(=O)[C@@H](NC(=O)[C@H](CCC(F)(F)F)[C@H](CCC(F)(F)F)C(N)=O)N=C2c1cccc(F)c1 [Compound (22), (2R,3S)—N-((3S)-5-(3-fluorophenyl)-9-methyl-2-oxo-2,3-dihydro-1H-1,4-benzodiazepin-3-yl)-2,3-bis(3,3,3-trifluoropropyl)succinamide] | increased cell-bound BCMA levels | as effective as LY3039478 and more effective than PF3084014 | inhibit BCMA shedding | elevated BCMA levels | did not affect BCMA expression | – | – | 0.9 | 4121 | 4500 | 0.9 | 2273 | 2518 | more potent than Compound 1; also recorded: as potent as LY3039478; also recorded: more potent than PF3084014 | did not increase cell-bound BCMA levels | increased cell-bound BCMA levels | increased cell-bound BCMA levels | Compound (22) increases BCMA expression in certain lymphomas by 2-9 fold | increases mBCMA
